Test results taken from ChEMBL document CHEMBL6083220, “Chemically induced degradation of PRC2 complex by EZH2-Targeted PROTACs via a Ubiquitin-Proteasome pathway” (Bioorg Med Chem Lett, 2024).
Active and inactive are the calls of the source. No cut-off for these calls is given here.

Legend:
OCI-Ly7 = test: Antiproliferative activity against human OCILY7 cells by MTT assay; assay type: functional, cell-based
[1] = Antiproliferative activity against human MINO cells by MTT assay; assay type: functional, cell-based
MINO [2] = test: Downregulation of EZH2 protein expression in human MINO cells at 5 uM incubated for 24 hrs by Western blotting assay; assay type: functional, cell-based
MINO [3] = test: Induction of mitochondrial apoptosis pathway in human MINO cells assessed as upregulation of cleaved PARP expression at 5 uM incubated for 24 hrs by Western blotting assay; assay type: functional, cell-based
[4] = Induction of apoptosis in human MINO cells assessed as viable cells at 5 uM incubated for 24 hrs by Annexin V-FITC/PI staining based flow cytometry assay (reference value: 89.93%); assay type: functional; conditions: read-out: Activity
MINO [5] = test: Induction of mitochondrial apoptosis pathway in human MINO cells assessed as upregulation of cytochrome C expression at 5 uM incubated for 24 hrs by Western blotting assay; assay type: functional, cell-based
MINO [6] = test: Downregulation of RbAp48 protein expression in human MINO cells at 5 uM incubated for 24 hrs by Western blotting assay; assay type: functional, cell-based
MINO [7] = test: Downregulation of EED protein expression in human MINO cells at 5 uM incubated for 24 hrs by Western blotting assay; assay type: functional, cell-based
MINO [8] = test: Downregulation of SUZ12 protein expression in human MINO cells at 5 uM incubated for 24 hrs by Western blotting assay; assay type: functional, cell-based
MINO [9] = test: Downregulation of H3k27me3 protein expression in human MINO cells at 5 uM incubated for 24 hrs by Western blotting assay; assay type: functional, cell-based
[10] = Induction of cell cycle arrest in human MINO cells assessed as G2/M phase cells at 5 uM incubated for 24 hrs by propidium iodide staining based flow cytometry assay (reference value: 7.26%); assay type: functional
[11] = Induction of apoptosis in human MINO cells assessed as necrotic cells at 5 uM incubated for 24 hrs by Annexin V-FITC/PI staining based flow cytometry assay (reference value: 0.74%); assay type: functional
MINO [12] = test: Induction of mitochondrial apoptosis pathway in human MINO cells assessed as downregulation of procaspase-3 expression at 5 uM incubated for 24 hrs by Western blotting assay; assay type: functional, cell-based
MINO [13] = test: Induction of mitochondrial apoptosis pathway in human MINO cells assessed as downregulation of procaspase-9 expression at 5 uM incubated for 24 hrs by Western blotting assay; assay type: functional, cell-based
[14] = Induction of cell cycle arrest in human MINO cells assessed as S phase cells at 5 uM incubated for 24 hrs by propidium iodide staining based flow cytometry assay (reference value: 25.19%); assay type: functional
MINO [15] = test: Induction of mitochondrial apoptosis pathway in human MINO cells assessed as upregulation of bax protein expression at 5 uM incubated for 24 hrs by Western blotting assay; assay type: functional, cell-based
[16] = Induction of apoptosis in human MINO cells assessed as early apoptotic cells at 5 uM incubated for 24 hrs by Annexin V-FITC/PI staining based flow cytometry assay (reference value: 1.04%); assay type: functional
[17] = Induction of apoptosis in human MINO cells assessed as late apoptotic cells at 5 uM incubated for 24 hrs by Annexin V-FITC/PI staining based flow cytometry assay (reference value: 8.29%); assay type: functional
MINO [18] = test: Induction of mitochondrial apoptosis pathway in human MINO cells assessed as downregulation of bcl-2 expression at 5 uM incubated for 24 hrs by Western blotting assay; assay type: functional, cell-based
[19] = Induction of cell cycle arrest in human MINO cells assessed as G0/G1 phase cells at 5 uM incubated for 24 hrs by propidium iodide staining based flow cytometry assay (reference value: 67.56%); assay type: functional

IC50 (OCI-Ly7) [µM] | Structure (SMILES) | IC50 [1] [µM] | further results
0.02 | CCN(c1cc(-c2ccc(CN3CCN(C(=O)CCC4CCC(CNc5cccc6c5C(=O)N(C5CCC(=O)NC5=O)C6=O)C4)CC3)cc2)cc(C(=O)NCc2c(C)cc(C)[nH]c2=O)c1C)C1CCOCC1 (configuration not stated) | 0.03 | –
1.97 | CCN(c1cc(-c2ccc(CN3CCN(C(=O)CN4CC(CNc5cccc6c5C(=O)N(C5CCC(=O)NC5=O)C6=O)C4)CC3)cc2)cc(C(=O)NCc2c(C)cc(C)[nH]c2=O)c1C)C1CCOCC1 (configuration not stated) | 0.95 | –
0.007 | CCN(c1cc(-c2ccc(CN3CCN(C(=O)/C=C/C4CCC(CNc5cccc6c5C(=O)N(C5CCC(=O)NC5=O)C6=O)C4)CC3)cc2)cc(C(=O)NCc2c(C)cc(C)[nH]c2=O)c1C)C1CCOCC1 (configuration not stated) | 0.057 | –
0.018 | CCN(c1cc(-c2ccc(CN3CCN(C(=O)C4CCC(CNc5cccc6c5C(=O)N(C5CCC(=O)NC5=O)C6=O)CC4)CC3)cc2)cc(C(=O)NCc2c(C)cc(C)[nH]c2=O)c1C)C1CCOCC1 (configuration not stated) | 0.034 | –
0.01 | CCN(c1cc(-c2ccc(CN3CCN(C(=O)CCC4CC(CNc5cccc6c5C(=O)N(C5CCC(=O)NC5=O)C6=O)C4)CC3)cc2)cc(C(=O)NCc2c(C)cc(C)[nH]c2=O)c1C)C1CCOCC1 (configuration not stated) | 0.048 | –
0.006 | CCN(c1cc(-c2ccc(CN3CCN(C(=O)/C=C/C4CC(CNc5cccc6c5C(=O)N(C5CCC(=O)NC5=O)C6=O)C4)CC3)cc2)cc(C(=O)NCc2c(C)cc(C)[nH]c2=O)c1C)C1CCOCC1 (configuration not stated) | 0.19 | –
0.04 | CCN(c1cc(-c2ccc(CN3CCN(C(=O)/C=C/C4CCC(CNc5cccc6c5C(=O)N(C5CCC(=O)NC5=O)C6=O)CC4)CC3)cc2)cc(C(=O)NCc2c(C)cc(C)[nH]c2=O)c1C)C1CCOCC1 (configuration not stated) | 0.024 | –
0.19 | CCN(c1cc(-c2ccc(CN3CCN(C(=O)C=C4CCC(CNc5cccc6c5C(=O)N(C5CCC(=O)NC5=O)C6=O)CC4)CC3)cc2)cc(C(=O)NCc2c(C)cc(C)[nH]c2=O)c1C)C1CCOCC1 (configuration not stated) | 0.69 | –

More lines, now with the values behind:

Structure (SMILES) | IC50 (OCI-Ly7) [µM] | IC50 [1] [µM] | further results
CCN(c1cc(-c2ccc(CN3CCN(CCCN4CC(CNc5cccc6c5C(=O)N(C5CCC(=O)NC5=O)C6=O)C4)CC3)cc2)cc(C(=O)NCc2c(C)cc(C)[nH]c2=O)c1C)C1CCOCC1 (configuration not stated) | 0.022 | 0.069 | –
CCN(c1cc(-c2ccc(CN3CCN(C(=O)Cc4ccc(CNc5cccc6c5C(=O)N(C5CCC(=O)NC5=O)C6=O)cc4)CC3)cc2)cc(C(=O)NCc2c(C)cc(C)[nH]c2=O)c1C)C1CCOCC1 (configuration not stated) | 0.87 | 1.03 | –
CCN(c1cc(-c2ccc(CN3CCN(C(=O)C4CCN(C5CCN(c6cccc7c6C(=O)N(C6CCC(=O)NC6=O)C7=O)CC5)CC4)CC3)cc2)cc(C(=O)NCc2c(C)cc(C)[nH]c2=O)c1C)C1CCOCC1 (configuration not stated) | 4.05 | 0.98 | –
CCN(c1cc(-c2ccc(CN3CCN(C(=O)CN4CCCC(CNc5cccc6c5C(=O)N(C5CCC(=O)NC5=O)C6=O)C4)CC3)cc2)cc(C(=O)NCc2c(C)cc(C)[nH]c2=O)c1C)C1CCOCC1 (configuration not stated) | 0.22 | 0.45 | –
CCN(c1cc(-c2ccc(CN3CCN(CC=C4CCC(CNc5cccc6c5C(=O)N(C5CCC(=O)NC5=O)C6=O)CC4)CC3)cc2)cc(C(=O)NCc2c(C)cc(C)[nH]c2=O)c1C)C1CCOCC1 (configuration not stated) | 0.004 | 0.25 | –
CCN(c1cc(-c2ccc(CN3CCN(CCC4CCC(CNc5cccc6c5C(=O)N(C5CCC(=O)NC5=O)C6=O)CC4)CC3)cc2)cc(C(=O)NCc2c(C)cc(C)[nH]c2=O)c1C)C1CCOCC1 (configuration not stated) | 0.013 | 0.04 | –
CCN(c1cc(-c2ccc(CN3CCN(C(=O)CCC4CCC(CNc5cccc6c5C(=O)N(C5CCC(=O)NC5=O)C6=O)CC4)CC3)cc2)cc(C(=O)NCc2c(C)cc(C)[nH]c2=O)c1C)C1CCOCC1 (configuration not stated) | 0.037 | 0.039 | –
CCN(c1cc(-c2ccc(CN3CCOCC3)cc2)cc(C(=O)NCc2c(C)cc(C)[nH]c2=O)c1C)C1CCOCC1 [TAZEMETOSTAT] | 1.19 | 1.07 | Activity (MINO [2]): inactive; Activity (MINO [3]): Active; Activity Weaker Than Zj-20; viability at 5 µM [4]: 57.2%; Activity (MINO [5]): Active; Activity Weaker Than Zj-20; Activity (MINO [6]): inactive; Activity (MINO [7]): inactive; Activity (MINO [8]): inactive; Activity (MINO [9]): Active; Limited Inhibition Observed; Activity [10]: 7.74%; Activity [11]: 10.27%; Activity (MINO [12]): Active; Activity Weaker Than Zj-20; Activity (MINO [13]): Active; Activity Weaker Than Zj-20; Activity [14]: 18.34%; Activity (MINO [15]): Active; Activity Weaker Than Zj-20; Activity [16]: 0.38%; Activity [17]: 32.16%; Activity (MINO [18]): Active; Activity Weaker Than Zj-20; Activity [19]: 73.92%
CCN(c1cc(-c2ccc(CN3CCN(C(=O)CN4CCC(Nc5cccc6c5C(=O)N(C5CCC(=O)NC5=O)C6=O)CC4)CC3)cc2)cc(C(=O)NCc2c(C)cc(C)[nH]c2=O)c1C)C1CCOCC1 (configuration not stated) | 0.022 | 0.53 | –
CCN(c1cc(-c2ccc(CN3CCN(C(=O)C4CCN(C5CN(c6cccc7c6C(=O)N(C6CCC(=O)NC6=O)C7=O)C5)CC4)CC3)cc2)cc(C(=O)NCc2c(C)cc(C)[nH]c2=O)c1C)C1CCOCC1 (configuration not stated) | 10.4 | 2.47 | –
CCN(c1cc(-c2ccc(CN3CCN(C(=O)CCN4CC(CNc5cccc6c5C(=O)N(C5CCC(=O)NC5=O)C6=O)C4)CC3)cc2)cc(C(=O)NCc2c(C)cc(C)[nH]c2=O)c1C)C1CCOCC1 (configuration not stated) | 0.17 | 0.51 | –
CCN(c1cc(-c2ccc(CN3CCN(C(=O)CN4CCC(Nc5cccc6c5C(=O)N(C5CCC(=O)NC5=O)C6=O)C4)CC3)cc2)cc(C(=O)NCc2c(C)cc(C)[nH]c2=O)c1C)C1CCOCC1 (configuration not stated) | 0.15 | 0.66 | –
CCN(c1cc(-c2ccc(CN3CCN(C(=O)CN4CCC(CNc5cccc6c5C(=O)N(C5CCC(=O)NC5=O)C6=O)C4)CC3)cc2)cc(C(=O)NCc2c(C)cc(C)[nH]c2=O)c1C)C1CCOCC1 (configuration not stated) | 2.13 | 3.21 | –
CCN(c1cc(-c2ccc(CN3CCN(C(=O)CN4CCN(c5cccc6c5C(=O)N(C5CCC(=O)NC5=O)C6=O)CC4)CC3)cc2)cc(C(=O)NCc2c(C)cc(C)[nH]c2=O)c1C)C1CCOCC1 (configuration not stated) | 2.35 | 0.11 | –
